# Measured values as given in patent US20250073311A1, “DOSAGE REGIME” (ZEALAND PHARMA A/S, priority 2021, published 2025).
# Numbered stars: 1 amine (or outer) side, 2 acyl side, 3 side chain; on linkers, the order of the positions; unused ones are H or OH. Square brackets hold non-standard residues; d marks the D form. Side chains are listed from the residue outwards. Peptide text beside a SMILES is read from it. * marks the point of attachment. C18 diacid = O=C(O)CCCCCCCCCCCCCCCCC(=O)*; γGlu = O=C(O)[C@H](CCC(=O)[*:2])N[*:1]; Aib = CC(C)(N)C(=O)O
# System: healthy human subjects
# Test: Standard meal test (lunch and dinner), Phase 1b trial
# Type: in vivo
# From the text: Reduction in appetite is reflected in the reduction in food intake measured by mixed meal test for breakfast (Table 11) and by measuring caloric intake at standard meals for lunch and dinner (Table 12).
# Pre-defined lunch and dinner meals were served at baseline (on Day -1) and after 4th dose (Day 23). Consumption was supervised and leftovers were weighed.
structure (smiles),measurement,setting,value
CC[C@H](C)[C@H](NC(=O)[C@H](Cc1ccccc1)NC(=O)[C@H](CC(=O)O)NC(=O)[C@H](CCCNC(=N)N)NC(=O)[C@H](C)NC(=O)[C@H](C)NC(=O)[C@H](CCC(N)=O)NC(=O)[C@H](CCCCNC(=O)CC[C@H](NC(=O)CCCCCCCCCCCCCCCCC(=O)O)C(=O)O)NC(=O)[C@H](CC(=O)O)NC(=O)[C@H](CC(C)C)NC(=O)[C@@H](NC(=O)[C@@H](NC(=O)[C@H](C)NC(=O)[C@H](CC(C)C)NC(=O)[C@H](CCC(=O)O)NC(=O)[C@H](CO)NC(=O)[C@@H](NC(=O)[C@H](Cc1ccccc1)NC(=O)[C@H](CO)NC(=O)CNC(=O)[C@H](CCC(=O)O)NC(=O)C(C)(C)NC(=O)[C@@H](N)Cc1c[nH]cn1)[C@@H](C)O)[C@@H](C)O)[C@@H](C)CC)C(=O)N[C@@H](C)C(=O)N[C@@H](Cc1c[nH]c2ccccc12)C(=O)N[C@@H](CC(C)C)C(=O)N[C@H](C(=O)N[C@@H](CCC(N)=O)C(=O)N[C@@H](Cc1c[nH]cn1)C(=O)N[C@@H](CCCCN)C(=O)N[C@H](C(=O)N[C@H](C(=O)N[C@@H](CC(=O)O)C(=O)O)[C@@H](C)O)[C@@H](C)CC)[C@@H](C)CC [Compound 18] (H-H[Aib]EGSFTSELATILDK([γGlu-C18 diacid])QAARDFIAWLIQHKITD-OH),Mean food consumption,"Dinner, After 4th dose (Day 23), cohort 1.0 mg weekly",682 kcal
same,Mean food consumption,"Dinner, After 4th dose (Day 23), cohort 2.25 mg weekly",585 kcal
same,Mean food consumption,"Dinner, After 4th dose (Day 23), cohort 3.5 mg weekly",594 kcal
same,Mean food consumption,"Dinner, After 4th dose (Day 23), cohort 3.5/6.0 mg weekly",423 kcal
same,Mean food consumption,"Dinner, Baseline (Day -1), cohort 1.0 mg",694 kcal
same,Mean food consumption,"Dinner, Baseline (Day -1), cohort 2.25 mg",679 kcal
same,Mean food consumption,"Dinner, Baseline (Day -1), cohort 3.5 mg",695 kcal
same,Mean food consumption,"Dinner, Baseline (Day -1), cohort 3.5/6.0 mg",694 kcal
same,Mean food consumption,"Lunch, After 4th dose (Day 23), cohort 1.0 mg weekly",705 kcal
same,Mean food consumption,"Lunch, After 4th dose (Day 23), cohort 2.25 mg weekly",649 kcal
same,Mean food consumption,"Lunch, After 4th dose (Day 23), cohort 3.5 mg weekly",647 kcal
same,Mean food consumption,"Lunch, After 4th dose (Day 23), cohort 3.5/6.0 mg weekly",403 kcal
same,Mean food consumption,"Lunch, Baseline (Day -1), cohort 1.0 mg",701 kcal
same,Mean food consumption,"Lunch, Baseline (Day -1), cohort 2.25 mg",638 kcal
same,Mean food consumption,"Lunch, Baseline (Day -1), cohort 3.5 mg",706 kcal
same,Mean food consumption,"Lunch, Baseline (Day -1), cohort 3.5/6.0 mg",671 kcal
